Consider ten molecules from ChEMBL document CHEMBL2413038, “Synthesis and bioevaluation of novel 4-aminoquinoline-tetrazole derivatives as potent antimalarial agents” (Eur J Med Chem, 2013).

One experiment deals with Plasma. The experiment in a line: Inhibition of beta-hematin formation in Plasmodium yoelii-infected Swiss albino mouse plasma using hemin as substrate after 16 hrs. The class given is functional, cell-free.
The test system of experiment [1] is Plasmodium falciparum. As to the kind of experiment: Resistance index, ratio of IC50 for chloroquine-resistant Plasmodium falciparum K1 to IC50 for chloroquine-sensitive Plasmodium falciparum 3D7. The class given is functional.
Experiment [2] can be described thus: Selectivity index, ratio of CC50 for African green monkey Vero cells to IC50 for Plasmodium falciparum. The class given is functional.
For experiment [3], the system named is Plasmodium falciparum. As to the kind of experiment: Antimalarial activity against chloroquine-resistant Plasmodium falciparum K1 after 72 hrs by MSF assay. The class given is functional, organism-based. The settings on record: K1, 72 h.
In experiment [4] the test system is Plasmodium falciparum. As to the kind of experiment: Antimalarial activity against chloroquine-sensitive Plasmodium falciparum 3D7 after 72 hrs by MSF assay. The class given is functional, organism-based. The settings on record: 3D7, 72 h.
The subject of experiment [5] is Plasmodium yoelii. As to the kind of experiment: Antimalarial activity against chloroquine-resistant Plasmodium yoelii N-67 infected in Swiss mouse assessed as mean survival time at 50 mg/kg, ip qd for 4 days. The class given is functional. The settings on record: route intraperitoneal.
For experiment [6], the system named is Plasmodium yoelii. The experiment in a line: Antimalarial activity against chloroquine-resistant Plasmodium yoelii N-67 infected in Swiss mouse assessed as cured animal at 50 mg/kg, ip qd for 4 days measured on day 28 post infection relative to control. It counts as functional.
Experiment [7] relates to Plasmodium yoelii. As to the kind of experiment: Antimalarial activity against chloroquine-resistant Plasmodium yoelii N-67 infected in Swiss mouse assessed as mouse survival at 50 mg/kg, ip qd for 4 days measured on day 28 post infection relative to control. The class given is functional.
The test system of experiment [8] is Plasmodium yoelii. As to the kind of experiment: Antimalarial activity against chloroquine-resistant Plasmodium yoelii N-67 infected in Swiss mouse assessed as suppression of parasitaemia level at 50 mg/kg, ip qd for 4 days relative to control. The class given is functional. To be noted: route intraperitoneal.
The test system of experiment [9] is Plasmodium falciparum. The experiment in a line: Ratio of chloroquine IC50 to compound IC50 for chloroquine-resistant Plasmodium falciparum K1. It counts as functional.

Each structure is given as a SMILES string. Values after ≈ are worked out from the molar mass of the structure shown. Active and inactive are the calls of the source. The rule behind the calls is not given here.

With `COc1ccc(C(Nc2ccc(Nc3ccnc4cc(Cl)ccc34)cc2)c2nnnn2C(C)(C)C)cc1` (stereo unspecified), the IC50 – broadly, the concentration that inhibits the measured activity by half – is 5.55 µg/mL (≈ 10.8 µM) in the experiment on Plasma, 0.384 µM in the experiment with Plasmodium falciparum [3] and 0.0577 µM in the experiment on Plasmodium falciparum [4]. Also, the inhibition result in the experiment on Plasma was “Dose-dependent effect”. Further, in the experiment with Plasmodium falciparum [1], the “Ratio IC50” value turned out to be 6.6. The “Ratio CC50/IC50” value in experiment [2] is 702.34.

For the molecule `Clc1ccc(C(Nc2ccc(Nc3ccnc4cc(Cl)ccc34)cc2)c2nnnn2C2CCCCC2)cc1` (stereo unspecified), the MST in the experiment with Plasmodium yoelii [5] was 10.4 days. The result with Plasmodium yoelii [6] and with Plasmodium yoelii [7] was inactive. Also, the Activity with Plasmodium yoelii [8] is on record as 20.43%. Also, the IC50 with Plasma stood at 3.81 µg/mL (≈ 7 µM); in the experiment with Plasmodium falciparum [3], 0.139 µM; in the experiment on Plasmodium falciparum [4], 0.156 µM. Besides, in the experiment on Plasma, the inhibition entry was “Dose-dependent effect”. In addition, the “Ratio IC50” value in the experiment with Plasmodium falciparum [1] worked out at 0.9. Also, the “Ratio CC50/IC50” value in experiment [2] is reported as 694.18.

With `Clc1ccc2c(Nc3ccc(NC(c4ccc(Br)cc4)c4nnnn4C4CCCCC4)cc3)ccnc2c1` (stereo unspecified), the “Ratio IC50” value is recorded as 3.38 with Plasmodium falciparum [9] and 0.8 in the experiment with Plasmodium falciparum [1]. Also, the MST with Plasmodium yoelii [5] worked out at 12.6 days. Besides, the outcome in the experiment with Plasmodium yoelii [6] and in the experiment on Plasmodium yoelii [7] was inactive. In the experiment on Plasmodium yoelii [8], the Activity was 69.56%. The concentration for half-maximal inhibition (IC50) was 4.38 µg/mL (≈ 7.44 µM) in the experiment on Plasma, 0.0737 µM in the experiment with Plasmodium falciparum [3] and 0.0927 µM in the experiment on Plasmodium falciparum [4]. Also, the inhibition entry in the experiment with Plasma is “Dose-dependent effect”. Besides, in experiment [2], the “Ratio CC50/IC50” value amounted to 1191.58.

On to `COc1ccc(C(Nc2ccc(Nc3ccnc4cc(Cl)ccc34)cc2)c2nnnn2C(C)(C)C)cc1OC` (stereo unspecified), for which the MST in the experiment on Plasmodium yoelii [5] amounted to 9.8 days. The outcome in the experiment with Plasmodium yoelii [6] and with Plasmodium yoelii [7] was inactive. For the same molecule, the Activity with Plasmodium yoelii [8] was 26.91%. Moreover, the figures for the IC50 in the experiment on Plasma, with Plasmodium falciparum [3] and in the experiment with Plasmodium falciparum [4] were 5.42 µg/mL (≈ 9.96 µM), 0.0762 µM and 0.0706 µM, respectively. For the same molecule, the inhibition entry in the experiment with Plasma was “Dose-dependent effect”. The “Ratio IC50” value with Plasmodium falciparum [1] came to 1. Also, in [2], the “Ratio CC50/IC50” value worked out at 193.28.

For `COc1ccc(C(NCCCNc2ccnc3cc(Cl)ccc23)c2nnnn2C(C)(C)C)cc1OC` (stereo unspecified), the IC50 in the experiment on Plasma amounted to 5.5 µg/mL (≈ 10.8 µM); in the experiment with Plasmodium falciparum [3], 0.138 µM; in the experiment with Plasmodium falciparum [4], 0.0579 µM. The inhibition result in the experiment on Plasma was “Dose-dependent effect”. Further, in the experiment with Plasmodium falciparum [1], the “Ratio IC50” value was determined as 2.3. For the same molecule, in experiment [2], the “Ratio CC50/IC50” value turned out to be 1662.92.

Regarding `Cc1ccc(C(Nc2ccc(Nc3ccnc4cc(Cl)ccc34)cc2)c2nnnn2C(C)(C)C)cc1` (stereo unspecified), the “Ratio IC50” value is 3.38 in the experiment on Plasmodium falciparum [9] and 0.07 with Plasmodium falciparum [1]. For the same molecule, the MST in the experiment with Plasmodium yoelii [5] came to 11 days. Moreover, the result in the experiment on Plasmodium yoelii [6] and with Plasmodium yoelii [7] was inactive. Also, the Activity in the experiment with Plasmodium yoelii [8] was 21.3%. The IC50 in the experiment on Plasma worked out at 5.39 µg/mL (≈ 10.8 µM); in the experiment on Plasmodium falciparum [3] it was 0.0754 µM; in the experiment with Plasmodium falciparum [4] it was 1.01 µM. In addition, in the experiment on Plasma, the inhibition result was “Dose-dependent effect”.

On to `CC(C)(C)n1nnnc1C(NCCCNc1ccnc2cc(Cl)ccc12)c1ccc(Cl)cc1` (stereo unspecified), for which the results for the IC50 with Plasma, in the experiment with Plasmodium falciparum [3] and in the experiment on Plasmodium falciparum [4] were 5.95 µg/mL (≈ 12.3 µM), 0.755 µM and 0.0814 µM, respectively. For the same molecule, the inhibition entry in the experiment on Plasma was “Dose-dependent effect”. Further, in the experiment with Plasmodium falciparum [1], the “Ratio IC50” value was found to be 9.2. Also, the “Ratio CC50/IC50” value in experiment [2] is 248.65.

As to `CC(C)(C)n1nnnc1C(c1ccc(Cl)cc1)N1CCN(c2ccnc3cc(Cl)ccc23)CC1` (stereo unspecified), the MST with Plasmodium yoelii [5] stood at 13 days. Further, the outcome in the experiment with Plasmodium yoelii [6] and with Plasmodium yoelii [7] was inactive. Also, the Activity in the experiment with Plasmodium yoelii [8] is 73.91%. The IC50 in the experiment with Plasma worked out at 5.32 µg/mL (≈ 10.7 µM); in the experiment with Plasmodium falciparum [3] it was 0.159 µM; in the experiment with Plasmodium falciparum [4], 0.787 µM. Besides, the inhibition entry in the experiment on Plasma is “Dose-dependent effect”. In addition, the “Ratio IC50” value in the experiment on Plasmodium falciparum [1] is listed as 0.2. Moreover, the “Ratio CC50/IC50” value in experiment [2] came to 182.96.

For the molecule `CCc1ccc(C(Nc2ccc(Nc3ccnc4cc(Cl)ccc34)cc2)c2nnnn2C(C)(C)C)cc1` (stereo unspecified), the IC50 was 5.95 µg/mL (≈ 11.6 µM) with Plasma, 0.688 µM with Plasmodium falciparum [3] and 0.0513 µM with Plasmodium falciparum [4]. In addition, the inhibition entry in the experiment with Plasma is “Dose-dependent effect”. Besides, the “Ratio IC50” value with Plasmodium falciparum [1] turned out to be 13.4. The “Ratio CC50/IC50” value in experiment [2] amounted to 3652.19.

Take `CC(C)(C)n1nnnc1C(NCCCNc1ccnc2cc(Cl)ccc12)c1cccc2ccccc12` (stereo unspecified): the values for the half-inhibitory concentration (IC50) in the experiment with Plasma, with Plasmodium falciparum [3] and in the experiment with Plasmodium falciparum [4] were 4.45 µg/mL (≈ 8.9 µM), 0.17 µM and 0.216 µM, respectively. Besides, the inhibition entry in the experiment with Plasma is “Dose-dependent effect”. The “Ratio IC50” value in the experiment with Plasmodium falciparum [1] came out at 0.8. Moreover, in experiment [2], the “Ratio CC50/IC50” value amounted to 58.67.
